Data: patent US7772255B2, “Method of treating tumors with azaxanthones” (Supratek Pharma, Inc., priority 2005, dated 2010)
Counter-ions that a name gives are not always drawn. Like-named read-outs stand apart in the source and are kept apart here.

Experiments:
[1] = Chemical stability of Amlexanox sodium salt solution (HPLC); format: physicochemical; conditions: 20 mg Amlexanox sodium salt in 2 mL Tris buffer pH 7.2; 0.05 molar equivalent of the listed compound; 72 hours, ambient light, access to air; HPLC peak area
Protocol: 20 mg of crystalline Amlexanox sodium salt was dissolved in a clear glass test tube in 2 mL of Tris buffer, pH 7.2. For each of the stabilizing compounds listed in the Table below, 0.05 molar equivalent of the compound was added to the solution, mixed until dissolved, and left under ambient light, and with access to the air. Concentration of Amlexanox in the sample was determined by HPLC right after preparation, and after 72 hours. The chemical stability of Amlexanox was evaluated by comparison of area under the peak of amlexanox from the two analyses.

[2] = Pharmacokinetics in normal dogs; format: in vivo, dog (Canis familiaris); conditions: dog plasma, oral, 10 mg/kg, listed as Amlexanox Na Salt, sodium salt
Protocol: Experiments were performed in 6 male Beagle dogs (Canis familiaris) (from 8 to 14 kg body weight, 2 to 3 years of age). The animals had ad libitum access to tap water. Commercial dog chow was provided to the animals once daily during a 2-hour feeding period.
Dosing solution of amlexanox salt was prepared by simple dissolving of amlexanox salt in water. Dosing solution of amlexanox acid was prepared suspending of amlexanox acid in 0.5% methyl cellulose.
Amlexanox acid and Na salt forms were orally administered by gavage in dogs (three animals in each group) at doses of 10 mg/kg. Amlexanox tablets L and CP, prepared according to Example 13, were administered to dogs orally at doses of 10 mg/kg. After various time intervals (pre-dose, 15, 30 min and 1, 2, 3, 6, 8, 12, 24 and 48 h) post-injection, blood was collected from the jugular vein of animals. Then, blood was immediately centrifuged, and plasma was separated. The plasma samples were immediately frozen in dry ice and stored at −80° C. until further use.
The defrosted plasma samples were centrifuged at 2000 g for 5 min, and aliquots (10 μL) of each sample were transferred into 1.5-ml plastic tubes. The samples were diluted with PBS in various amounts of times and aliquots of 100 μL were transferred into the other 1.5-ml plastic tubes. The samples were extracted with 1 mL of 100% acetonitrile for 10 min on 180° rotator. Then, the tubes were centrifuged at 10,000 g for 15 min.
(§1) The supernatant was separated to glass tubes and evaporated in a stream of nitrogen at […]. until dryness. The dried samples were kept at −20° C. until HPLC analysis. The samples were reconstituted in 100 μL of mobile phase analyze before analyze by HPLC.
(§2) The samples were analysed by HPLC using 250×4.6 mm, Phenomenex C18 Luna, 5 micron column, 1 mL/min flow rate of mobile phase 73% of 25 mM sodium phosphate pH 7.5 and 27% acetonitrile; fluorescent deyection λexcitation=348 nm, λemission=404 nm.
The concentrations of amlexanox in samples were determined by comparison with calibration curve obtained from spiked dog plasma samples using the same analytical method. The areas under the curves (AUC) of amlexanox were calculated by trapezoidal method.

[3] = Bioavailability and pharmacokinetics in normal rats; format: in vivo, rat; conditions: for clearance / Vd / AUC / Cmax / MRT / half-life / bioavailability: female, CD; for clearance / Vd / AUC / Cmax / MRT / half-life / CL / Vss: rat plasma; for Vd: read-out: Vss; for AUC / Cmax / MRT / half-life / bioavailability: rat, plasma; for bioavailability: salt, read-out: Bioavailability for oral administration; for CL / Vss: oral
Protocol: Female CD rats (from 200 to 250 g body weight) were obtained from Charles River Canada Inc. (St. Constant, Quebec, Canada). The animals were kept 4 per cage with an air filter cover under light (12 h light/dark cycle, light on at 06 h 00) and temperature (22°±1° C.)-controlled environment. All manipulations with the animals were performed under a sterilized laminar hood. The animals had ad libitum access to Purina rat chow (Pro Lab PMH 4018, Trademark of Agway, Syracuse, N.Y.) and water. The animal studies were conducted according to the “Guidelines for Care and Use of Experimental Animals”.
For Amlexanox salt the dosing solution was prepared by dissolving 20 mg of Amlexanox in equi-molar NaOH solution and then, equilibrated with 1M Tris-HCl pH 7.4. For Amlexanox acid the dosing solution was prepared by simple suspending 20 mg of Amlexanox in 1% methyl cellulose in water.
Amlexanox dosing solution (20 mg/mL) was administered i.v. and orally in normal rats (four animals in each group) at doses of 10, 25, 50, 100 and 200 mg/kg. After various time intervals (30 min and 1, 3, 6, 10 and 24 h) post-injection, blood was collected from eye vein of animals. Then, blood was immediately centrifuged, and plasma was separated. The plasma samples were immediately frozen in dry ice and stored at −80° C. until further use.
The defrosted plasma samples were centrifuged at 2000 g for 5 min, and aliquots (10 μL) of each sample were transferred into 1.5-ml plastic tubes. The samples were diluted with phosphate buttered saline (PBS) in various amounts of times and aliquots of 100 μL were transferred into the other 1.5-ml plastic tubes. The samples were extracted with 1 mL of 100% acetonitrile for 10 min on 180° rotator. Then, the tubes were centrifuged at 10,000 g for 15 min.
as §1, §2
The concentrations of Amlexanox in samples were determined by comparison with calibration curve obtained from spiked rat plasma samples using the same analytical method. The areas under the curves (AUC) of Amlexanox were calculated by trapezoidal method.

CC(C)c1ccc2oc3nc(N)c(C(=O)O)cc3c(=O)c2c1 [Amlexanox (salt), 2-amino-7-isopropyl-1-azaxanthone-3-carboxylic acid sodium salt]
Retained Amlexnox [1]: 93.8%
AUC [2]: 29.0 µg·h/mL
CL [2]: 0.3 L/kg/h
Cmax [2]: 10.7 µg/mL
MRT [2]: 2.5 h
Vss [2]: 0.9 L/kg
t1/2 [2]: 1.8 h
clearance ([3]; iv, I.V., 10 mg/kg): 50 mL/min/kg
Vd ([3]; iv, I.V., 10 mg/kg): 2.26 L/kg
clearance ([3]; iv, I.V., 25 mg/kg): 8.83 mL/min/kg
Vd ([3]; iv, I.V., 25 mg/kg): 0.99 L/kg
clearance ([3]; iv, I.V., 50 mg/kg): 1.67 mL/min/kg
Vd ([3]; iv, I.V., 50 mg/kg): 0.1 L/kg
clearance ([3]; iv, I.V., 100 mg/kg): 2.17 mL/min/kg
Vd ([3]; iv, I.V., 100 mg/kg): 0.14 L/kg
clearance ([3]; iv, I.V., 200 mg/kg): 4.5 mL/min/kg
Vd ([3]; iv, I.V., 200 mg/kg): 0.51 L/kg
AUC ([3]; iv, 10 mg/kg, I.V.): 3300 ng·h/mL
Cmax ([3]; iv, 10 mg/kg, I.V.): 4500 ng/mL
MRT ([3]; iv, 10 mg/kg, I.V.): 0.75 h
half-life ([3]; iv, 10 mg/kg, I.V.): 31.2 min
AUC ([3]; iv, 25 mg/kg, I.V.): 47000 ng·h/mL
Cmax ([3]; iv, 25 mg/kg, I.V.): 33400 ng/mL
MRT ([3]; iv, 25 mg/kg, I.V.): 1.87 h
half-life ([3]; iv, 25 mg/kg, I.V.): 77.4 min
AUC ([3]; iv, 50 mg/kg, I.V.): 217000 ng·h/mL
Cmax ([3]; iv, 50 mg/kg, I.V.): 165000 ng/mL
MRT ([3]; iv, 50 mg/kg, I.V.): 1.05 h
half-life ([3]; iv, 50 mg/kg, I.V.): 41.4 min
AUC ([3]; iv, 100 mg/kg, I.V.): 398000 ng·h/mL
Cmax ([3]; iv, 100 mg/kg, I.V.): 216000 ng/mL
MRT ([3]; iv, 100 mg/kg, I.V.): 1.14 h
half-life ([3]; iv, 100 mg/kg, I.V.): 45 min
AUC ([3]; iv, 200 mg/kg, I.V.): 739000 ng·h/mL
Cmax ([3]; iv, 200 mg/kg, I.V.): 466000 ng/mL
MRT ([3]; iv, 200 mg/kg, I.V.): 1.89 h
half-life ([3]; iv, 200 mg/kg, I.V.): 78.6 min
AUC ([3]; po, 10 mg/kg, salt solution): 1040 ng·h/mL
Cmax ([3]; po, 10 mg/kg, salt solution): 190 ng/mL
MRT ([3]; po, 10 mg/kg, salt solution): 8.29 h
half-life ([3]; po, 10 mg/kg, salt solution): 346 min
bioavailability ([3]; po, 10 mg/kg, 10 mg/kg): 31.2%
AUC ([3]; po, 25 mg/kg, salt solution): 2200 ng·h/mL
Cmax ([3]; po, 25 mg/kg, salt solution): 550 ng/mL
MRT ([3]; po, 25 mg/kg, salt solution): 7.71 h
half-life ([3]; po, 25 mg/kg, salt solution): 320 min
bioavailability ([3]; po, 25 mg/kg, 25 mg/kg): 4.7%
AUC ([3]; po, 50 mg/kg, salt solution): 4470 ng·h/mL
Cmax ([3]; po, 50 mg/kg, salt solution): 1590 ng/mL
MRT ([3]; po, 50 mg/kg, salt solution): 7.28 h
half-life ([3]; po, 50 mg/kg, salt solution): 302 min
bioavailability ([3]; po, 50 mg/kg, 50 mg/kg): 2.1%
AUC ([3]; po, 100 mg/kg, salt solution): 41200 ng·h/mL
Cmax ([3]; po, 100 mg/kg, salt solution): 19800 ng/mL
MRT ([3]; po, 100 mg/kg, salt solution): 2.05 h
half-life ([3]; po, 100 mg/kg, salt solution): 85.2 min
bioavailability ([3]; po, 100 mg/kg, 100 mg/kg): 10.3%
AUC ([3]; po, 200 mg/kg, salt solution): 200000 ng·h/mL
Cmax ([3]; po, 200 mg/kg, salt solution): 95200 ng/mL
MRT ([3]; po, 200 mg/kg, salt solution): 1.77 h
half-life ([3]; po, 200 mg/kg, salt solution): 73.8 min
bioavailability ([3]; po, 200 mg/kg, 200 mg/kg): 27.1%
CL ([3]; salt solution, 10 mg/kg): 9.6 L/kg/h
Vss ([3]; salt solution, 10 mg/kg): 79.8 L/kg
CL ([3]; salt solution, 25 mg/kg): 11.4 L/kg/h
Vss ([3]; salt solution, 25 mg/kg): 87.7 L/kg
CL ([3]; salt solution, 50 mg/kg): 11.2 L/kg/h
Vss ([3]; salt solution, 50 mg/kg): 81.4 L/kg
CL ([3]; salt solution, 100 mg/kg): 2.43 L/kg/h
Vss ([3]; salt solution, 100 mg/kg): 4.99 L/kg
CL ([3]; salt solution, 200 mg/kg): 0.5 L/kg/h
Vss ([3]; salt solution, 200 mg/kg): 0.89 L/kg
